The subject of test [1] is MDA-MB-468. The test can be described thus: Cytotoxicity against human MDA-MB-468 cells assessed as reduction in cell viability incubated for 72 hrs by MTT assay. The format is functional, cell-based. Particulars: MDA-MB-468, 72 h. In general terms: Tetrazolium assays rely on reduction of a dye to a coloured formazan, in cell work by metabolically active cells.
Another test has as its system MDA-MB-231. The test is described as follows: Cytotoxicity against human MDA-MB-231 cells assessed as reduction in cell viability incubated for 72 hrs by MTT assay. The format is functional, cell-based. Particulars: MDA-MB-231, 72 h.
A further test concerns MCF-10A. The test is described as follows: Cytotoxicity against human MCF10A cells assessed as reduction in cell viability incubated for 72 hrs by MTT assay. The class given is cell-based.
In the next test the test system is DLD-1. The test is described as follows: Cytotoxicity against human DLD1 cells assessed as reduction in cell viability incubated for 72 hrs by MTT assay. The class given is functional, cell-based. The following applies: DLD-1, 72 h.
In test [2] the test system is MDA-MB-468. The test is described as follows: Antitumor activity against human MDA-MB-468 cells xenografted in NOD.CB17-Prkdc scid/J mouse assessed as inhibition of tumor growth at 20 mg/kg/day measured every two days up to 70 days post treatment initiation. The class given is functional, organism-based.
The next test deals with MCF7. The test is described as follows: Cytotoxicity against human MCF7 cells assessed as reduction in cell viability incubated for 72 hrs by MTT assay. Particulars: MCF7, 72 h. The class given is functional, cell-based.
The subject of the next test is ZR-75-1. The test is described as follows: Cytotoxicity against human ZR-75-1 cells assessed as reduction in cell viability incubated for 72 hrs by MTT assay. The class given is functional, cell-based. The following applies: ZR-75-1, 72 h.
The test system of test [3] is MDA-MB-468. The test can be described thus: Antitumor activity against human MDA-MB-468 cells xenografted in NOD.CB17-Prkdc scid/J mouse assessed as inhibition of tumor growth at 20 mg/kg/day co-treated with 2.5mg/kg/4day doxorubicin measured every two days up to 11 days post treatment initiation relative to compound alone. The class given is functional. A general note: Xenograft models place foreign cells or tissue in a host animal.

In the next test the test system is HCC70. The test is described as follows: Cytotoxicity against human HCC70 cells assessed as reduction in cell viability incubated for 72 hrs by MTT assay. The following applies: HCC70, 72 h. The class given is functional, cell-based.
Test [4] relates to MDA-MB-468. The test is described as follows: Induction of cell cycle arrest in human MDA-MB-468 cells assessed as accumulation at G0/G1 phase at 10 to 160 uM incubated for 24 hrs by propidium iodide staining based flow cytometry. The format is functional. (In flow cytometry, cells or beads pass a laser one at a time.)
The test system of test [5] is MDA-MB-468. The test is described as follows: Antitumor activity against human MDA-MB-468 cells xenografted in NOD.CB17-Prkdc scid/J mouse assessed as inhibition of tumor growth at 20 mg/kg/day co-treated with 2.5mg/kg/4day doxorubicin measured every two days up to 11 days post treatment initiation relative to doxorubicin alone. The class given is functional.
Test [6] concerns MDA-MB-468. The test can be described thus: Induction of cell cycle arrest in human MDA-MB-468 cells assessed as accumulation at G0/G1 phase at 2.5 to 40 uM incubated for 24 hrs by propidium iodide staining based flow cytometry. The format is functional.

In ChEMBL document CHEMBL4421737, “D-3-phosphoglycerate dehydrogenase allosteric inhibitor and use thereof” (2018) one finds EC50, TGI and Activity data, which are given here for 2 molecules.

Activity calls are given as the source filed them. The rule behind the calls is not given here.

What is called EC50 is the concentration that produces a half-maximal response. On to `CCNC(=S)N/N=C/c1ccc(-c2ccc(C(=O)O)c(Cl)c2)o1`, for which the EC50 is 6.9 µM in the test with MDA-MB-468 [1]; above 200 µM with MDA-MB-231; 64.7 µM in the test on MCF-10A; 167 µM with DLD-1; above 200 µM in the test on MCF7; 125 µM in the test on ZR-75-1. In addition, the EC50 with HCC70 came to 10 µM. For the same molecule, the TGI entry in the test with MDA-MB-468 [2] was “Active”. The TGI in the test with MDA-MB-468 [3] and in the test on MDA-MB-468 [5] was 41% in each case. In addition, the result with MDA-MB-468 [4] was Active.
Turning to `O=C(N/N=C/c1cc([N+](=O)[O-])ccc1O)c1ccc(O)cc1O`, the EC50 in the test on MDA-MB-468 [1] worked out at 7.7 µM; in the test with MDA-MB-231, 27.7 µM; in the test with MCF-10A, 45.8 µM; with DLD-1, 18.3 µM; in the test with ZR-75-1, 83.4 µM; in the test with HCC70, 10.8 µM. Besides, the result in the test on MDA-MB-468 [6] was Active. Moreover, in the test on MDA-MB-468 [2], the TGI result is “Active”.
